Results from patent US8470859B2, “Iminopyridine derivative and use thereof” (Takeda Pharmaceutical Company Limited, priority 2006, dated 2013).
Where a name gives a salt, the structure may show the parent alone. Read-outs that look alike come from different tables or passages of the source.

Columns and labels:
[1] = system: isolated bladder muscle of BOO model rat; test: Effect of various drugs on α1 receptor stimulation-induced contraction of isolated bladder muscle of bladder outlet obstruction (BOO) model rat; details: phenylephrine 3 μmol/L; for IC50: Rattus norvegicus, 0.5 h, concentration inhibiting the average tension by 50%, read-out: Inhibitory effect on phenylephrine-induced contraction IC50 (average method); for IC50 / Inhibitory effect on phenylephrine-induced contraction IC30 (stddev method): cumulative treatment, 3 concentrations, 30 min intervals; for Inhibitory effect on phenylephrine-induced contraction IC30 (stddev method): concentration inhibiting the sustained, rhythmic contractile responses by 30%
Procedure: Effect of Various Drugs on α1 Receptor Stimulation-Induced Contraction of Isolated Bladder Muscle of Bladder Outlet Obstruction (BOO) Model Rat
• (i) Seven-week-old male Wistar rats (CLEA Japan, Inc., Tokyo) were used. BOO rat was prepared according to publications (Hashimoto T, Nagabukuro H and Doi T: Effects of the selective acetylcholinesterase inhibitor TAK-802 on the voiding behavior and bladder mass increase in rats with partial bladder outlet obstruction. J Urol. 174: 1137-41., 2005.). After pentobarbital (50 mg/kg i.p., Dainippon Sumitomo Pharma Co., Ltd., Osaka) anesthesia, a lower middle abdominal incision was made to expose the bladder. The prostate was detached, the urethra was ligated along with a glass rod having an outer diameter of 1.2 mm, and the glass rod was removed to prepare partial obstruction of the urethra. After the surgery, the abdomen was sutured, and penicillin (2000 IU/rat, penicillin G potassium, MEIJI SEIKA KAISHA, LTD., Tokyo) was subcutaneously administered. An animal after 2 to 4 weeks from obstruction surgery was used. • (ii) Contractile Responses of Isolated Bladder Muscle (1) Preparation of Bladder Muscle Specimen
BOO model rat was sacrificed by decaptation, and the bladder was isolated. Muscle strips (length 7-10 mm, width about 3 mm) in the longitudinal direction were prepared from the bladder except bladder trigone (4-6 specimen from each bladder).
The prepared bladder muscle specimens were hung in a Magnus bath aerated with 95% O2-5% CO2 gas and filled with modified Krebs solution. The contraction tension was measured by an isometric strain transducer (TSD125C, Biopac systems, Santa Barbara, Calif., USA) and recorded in the hard disc of PC (ThinkCentre, IBM, USA) via an amplifier (DA100C, Biopac systems) and a multichannel data analysis apparatus (MP100A-CE, Biopac systems). For uptaking the data, a dedicated software (Acqknowledge 3.8.1., Biopac systems) was used and the sampling interval was set to 0.2 second (5 Hz). The specimens were hung with a load of about 1 g and, after an equilibration time of 1 hr or longer, the following experiment was performed.
The specimens were treated with phenylephrine (3 μmol/L) to induce contraction. After the contractile response was stabilized (>20 min), the specimens were cumulatively treated 3 times with a drug at a 10-fold common ratio and 30 min intervals, and the variation in the tension was observed.
The variation in the tension due to α1 receptor stimulation was evaluated by the two methods shown below [average method and standard deviation (Stddev) method].
The average tension for one minute was measured immediately before phenylephrine treatment and after the contraction was stabilized after the treatment (immediately before completion of about 20 min observation time), and the difference was taken as 100%. The average tension for one minute was measured immediately before completion of observation time (30 min) after treatment with a drug at each concentration, and the inhibition rate of the drug at each concentration was calculated. In the vehicle treatment group, the variation rate of phenylephrine-induced contraction was calculated every time the specimens were treated 3 times with lo the solvent, and the inhibition rate of the drug at each concentration was adjusted based on the variation rate of the corresponding vehicle treatment group. The concentration (IC50) necessary for inhibiting the average tension by 50% by preclinical package (SAS Institute Japan, Ver. 5.0) was calculated based on the inhibition rate at each concentration.
The standard deviation was measured immediately before phenylephrine treatment and for 5 min after the contraction was stabilized after treatment (immediately before completion of the about 20 min observation time) and the difference was taken as 100%. […]

[2] = biological target: T1, human adrenaline α1D receptor (Homo sapiens, UniProt P25100); test: Measurement of α1D receptor binding inhibitory activity ([3H]prazosin binding to membrane fraction of CHO-K1 cells expressing the receptor); details: read-out: binding inhibitory rate (%) (α1D receptor binding inhibitory rate at 1 μM)
T1 construct: expressed in transfected cells; membrane fraction used
T1 sequence (P25100 1-572): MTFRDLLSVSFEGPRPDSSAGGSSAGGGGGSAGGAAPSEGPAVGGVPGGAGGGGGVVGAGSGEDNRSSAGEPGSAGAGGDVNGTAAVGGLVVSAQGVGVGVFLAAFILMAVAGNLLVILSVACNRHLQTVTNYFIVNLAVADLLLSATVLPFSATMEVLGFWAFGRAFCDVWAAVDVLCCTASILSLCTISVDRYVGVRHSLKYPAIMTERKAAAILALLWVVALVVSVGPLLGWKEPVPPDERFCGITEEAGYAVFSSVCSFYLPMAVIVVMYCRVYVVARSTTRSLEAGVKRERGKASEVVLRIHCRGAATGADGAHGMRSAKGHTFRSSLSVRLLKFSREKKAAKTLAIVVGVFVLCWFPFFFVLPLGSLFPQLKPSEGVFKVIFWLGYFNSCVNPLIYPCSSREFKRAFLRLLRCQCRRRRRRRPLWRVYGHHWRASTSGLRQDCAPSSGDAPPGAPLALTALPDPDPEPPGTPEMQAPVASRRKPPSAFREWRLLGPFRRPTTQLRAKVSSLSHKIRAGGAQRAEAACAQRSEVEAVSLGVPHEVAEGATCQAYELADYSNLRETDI
Procedure: Measurement of α1D Receptor Binding Inhibitory Activity
Genetic manipulation methods described below are based on the methods described in Maniatis et al., Molecular Cloning, Cold Spring Harbor Laboratory, 1989, the protocol appended to a reagent and the like. • (i) Preparation of Human Adrenaline α1D Receptor Expression Plasmid
Adrenaline α1D receptor gene was cloned from human […] CDNA by the PCR method. PCR reaction was performed by Gene Amp PCR System 9700 (Applied Biosystems) with […] each of the primer set 5′-[…]-3′ [SEQ ID NO: 1] and 5′-[…]-3′ [SEQ ID NO: 2] prepared in reference to the base sequence of the adrenaline α1D receptor gene reported by DEBRA A. et al. (J. Pharamacol. Exp. Ter., 272, 134-142 (1995)), 200 ng of human brain hippocampus cDNA library (Takara Shuzo Co., Ltd.) as a template and TaKaRa LA-Taq DNA Polymerase (Takara Shuzo Co., Ltd.) (reaction conditions: 45 cycles of 94° C. for 15 sec, 68° C. for 3.5 min).
The PCR fragment obtained above was digested with restriction enzymes NheI (Takara Shuzo Co., Ltd.) and Kpn I (Takara Shuzo Co., Ltd.) and applied to agarose gel electrophoresis to recover DNA fragments. The DNA fragments was ligated with animal cell expression plasmid, pcDNA3.1/Zeo (Invitrogen) digested with NheI and Kpn I, by DNA Ligation Kit Ver.2 (Takara Shuzo Co., Ltd.), and transformed the competent cells of Escherichia coli JM109 to obtain plasmid, pcDNA3. 1/Zeo-Adreα1D. • (ii) Introduction of Human Adrenaline α1D Receptor Expression Plasmid into CHO-K1 Cells and Preparation of Membrane Fraction
CHO-K1 cells passage cultured in HmF12 medium (Invitrogen) containing 10% fetal bovine serum (TRACE SCIENCETIFIC) in a 150 cm^2 culture flask (Corning Coaster) were detached with 0.5 g/L trypsin-0.2 g/L EDTA (Invitrogen), and the cells were washed with D-PBS(−) (Invitrogen) and centrifuged (1000 rpm, 5 min). Then, using Gene Pulser II (BioRad), DNA was introduced into the cells under the following conditions. 1×10^7 cells suspended in D-PBS(−) (700 μl) and 10 μg of pcDNA3.1/Zeo-Adreα1D were added in a 0.4 cm gap cuvette (BioRad), and electroporation was performed under voltage 0.25 kV, capacitance 960 μF. The cells were cultured in HamF12 medium containing 10% fetal bovine serum and 250 μg/mL Zeocin (Invitrogen) and the Zeocin resistance clones were selected.
Plurality of Zeocin resistance clones were selected and cultured in a cell culture flask (150 cm^2) until semiconfluent, and the cellular membrane fraction was prepared as follows.
The semiconfluent cells were detached with 0.02% EDTA containing D-PBS(−) and recovered by centrifugation. The cells were suspended in membrane preparation buffer (10 mM NaHCO3 pH 7.4, protease inhibitor cocktail (Roche)) and disrupted by 3 times of treatment in a polytron homogenizer (model PT-3100, KINEMATICA AG) at 20000 rpm for 20 seconds. After disruption, the cells were centrifuged at 2000 rpm for 10 min and the supernatant containing membrane fractions was obtained. The supernatant was centrifuged using an ultracentrifuge (model L8-70M, rotor 70 Ti, Beckman Instruments) at 30000 rpm for 1 hr to obtain a precipitate containing membrane fractions. The obtained membrane fraction of each clone was subjected to the binding experiment shown below.
The membrane fraction (20 μg/well) [^3H] prazosin (2.5 nM, PerkinElmer Lifescience), as a ligand, were diluted with a binding assay buffer (50 mM Tris-HCl, 10 mM MgCl2, 0.5% BSA, protease inhibitor cocktail pH 7.5) and added to a 96 well microplate, and reacted at room temperature for 1 hr. For the measurement of non-specific binding, phentolamine (Sigma) was further added to 10 μM. Then, the reaction mixture was filtered and transferred to unifilter GF/C (PerkinElmer Lifescience) by using a cell harvester (PerkinElmer Lifescience). The filter was washed 3 times with ice-cooled 50 mM Tris buffer (pH 7.5). […]

[3] = compound at 1 μM, [3H] prazosin 2.5 nM, membrane fraction 20 μg/well

Row | SMILES | inhibition at 1 µM [2, 3] [%] | other results
1 | COc1ccccc1N1CCN(CCN2C(=O)CC3(CCCC3)CC2=O)CC1 [BMY 7378] | – | IC50 [1]: 270 nM; effect on the rhythmic contractile response induced by phenylephrine (average method and Stddev method), in words [1]: inhibited; Inhibitory effect on phenylephrine-induced contraction IC30 (stddev method) [1]: 89 nM
2 | N=c1c(C(N)=O)cc(Cl)cn1Cc1cccc(Cl)c1 [Example 19, 5-chloro-1-(3-chlorobenzyl)-2-imino-1,2-dihydropyridine-3-carboxamide] | 99.1 | –
3 | N=c1c(C(N)=O)cc(Cl)cn1Cc1ccc(Cl)c(Cl)c1 [Example 20, 5-chloro-1-(3,4-dichlorobenzyl)-2-imino-1,2-dihydropyridine-3-carboxamide] | 100 | –
4 | N=c1c(C(N)=O)cc(Cl)cn1CCc1ccccc1 [Example 23, 5-chloro-2-imino-1-(2-phenylethyl)-1,2-dihydropyridine-3-carboxamide] | 81.8 | –
5 | N=c1c(C(N)=O)cc(Cl)cn1CC1CCCCC1 [Example 26, 5-chloro-1-(cyclohexylmethyl)-2-imino-1,2-dihydropyridine-3-carboxamide] | 75.7 | –
6 | N=c1c(C(N)=O)cc(Cl)cn1C1CCc2ccccc21 (stereo not drawn) [Example 32, 5-chloro-1-(2,3-dihydro-1H-inden-1-yl)-2-imino-1,2-dihydropyridine-3-carboxamide] | 93.9 | –
7 | CS(=O)(=O)c1cc(Cl)ccc1Cn1cc(Cl)cc(C(N)=O)c1=N [Example 149, 5-chloro-1-[4-chloro-2-(methylsulfonyl)benzyl]-2-imino-1,2-dihydropyridine-3-carboxamide hydrobromide] | 96 | –
8 | N#Cc1cc(C(N)=O)c(=N)n(Cc2cccc(Cl)c2)c1 [Example 151, 1-(3-chlorobenzyl)-5-cyano-2-imino-1,2-dihydropyridine-3-carboxamide hydrobromide] | – | inhibition at 1 µM [2]: 69.5%
9 | N#Cc1ccc(F)c(Cn2cc(Cl)cc(C(N)=O)c2=N)c1 [Example 156, 5-chloro-1-(5-cyano-2-fluorobenzyl)-2-imino-1,2-dihydropyridine-3-carboxamide hydrobromide] | 91.8 | –
10 | C[C@H](c1ccccc1)n1cc(Cl)cc(C(N)=O)c1=N [Example 168, 5-chloro-2-imino-1-[(1R)-1-phenylethyl]-1,2-dihydropyridine-3-carboxamide hydrochloride] | 94.7 | –
11 | N=c1c(C(N)=O)cc(Cl)cn1[C@@H]1CCc2ccccc21 [Example 169, 5-chloro-1-[(1R)-2,3-dihydro-1H-inden-1-yl]-2-imino-1,2-dihydropyridine-3-carboxamide hydrochloride] | 100 | –
12 | N#Cc1cc(F)cc(Cn2cc(Cl)cc(C(N)=O)c2=N)c1 [Example 181, 5-chloro-1-(3-cyano-5-fluorobenzyl)-2-imino-1,2-dihydropyridine-3-carboxamide hydrobromide] | 95.4 | –
13 | N#Cc1cc(Cl)cc(Cn2cc(Cl)cc(C(N)=O)c2=N)c1 [Example 182, 5-chloro-1-(3-chloro-5-cyanobenzyl)-2-imino-1,2-dihydropyridine-3-carboxamide hydrobromide] | 99.2 | –
14 | COc1ccccc1N1CCN(CC(O)COc2cccc3ccccc23)CC1 (stereo not drawn) [Naftopidil] | – | IC50 [1]: 1500 nM; effect on the rhythmic contractile response induced by phenylephrine (average method and Stddev method), in words [1]: inhibited; Inhibitory effect on phenylephrine-induced contraction IC30 (stddev method) [1]: 3800 nM
15 | CCOc1ccccc1OCCN[C@H](C)Cc1ccc(OC)c(S(N)(=O)=O)c1 [Tamsulosin, tamsulosin] | – | IC50 [1]: 34 nM; effect on the rhythmic contractile response induced by phenylephrine (average method and Stddev method), in words [1]: inhibited; Inhibitory effect on phenylephrine-induced contraction IC30 (stddev method) [1]: 9.4 nM
